Measurements published in patent US20260022143A1, “Cyclic Peptide Inhibitors of IL-23” (JANSSEN PHARMACEUTICA NV, priority 2022, published 2026).
Starred links: 1 amine or outer side, 2 acyl side, 3 side chain; linkers in the order of their positions; H or OH if unused. Positions of bridges follow the written chain, without caps; N, C: chain ends. Non-standard residues stand in square brackets, D forms with d. Residues, ends and D or L forms follow the SMILES beside them. *: point of attachment. X51 = C[N+](C)(C)CCCc1cn(-c2ccc(C[C@H](N[*:1])C(=O)[*:2])cc2)nn1; Me3N+(CH2)2O(CH2)2O(CH2)2CO = C[N+](C)(C)CCOCCOCCC(=O)*; Trp(7-Me) = Cc1cccc2c(C[C@H](N)C(=O)O)c[nH]c12; Hexanoyl(6-NMe3+) = C[N+](C)(C)CCCCCC(=O)*; dLys(Me3) = C[N+](C)(C)CCCC[C@@H](N)C(=O)O; 3Pal(5-Me) = Cc1cncc(C[C@H](N)C(=O)O)c1; 2Nal = N[C@@H](Cc1ccc2ccccc2c1)C(=O)O; Propanoyl(3,3,3-F3) = O=C(CC(F)(F)F)*; AEF = NCCOc1ccc(C[C@H](N)C(=O)O)cc1; X22 = CN1CC[N+](C)(CCOCCOCC*)CC1; 3Pal = N[C@@H](Cc1cccnc1)C(=O)O; Lys(Me) = CNCCCC[C@H](N)C(=O)O; X69 = CN(CCOCC[N+](C)(C)C)CC*; Pen = CC(C)(S)[C@H](N)C(=O)O; αMeK = C[C@](N)(CCCCN)C(=O)O; X86 = C[N+]1(C)CCCC(C*)C1; Thp = NC1(C(=O)O)CCOCC1; X3 = C[N+](C)(C)CCCCC*; X91 = c1cc[n+](CC*)cc1; Me2NCH2CH2 = CN(C)CC*; X42 = O=C(O)CCCCCCCC*; Sar = CNCC(=O)O

experiment: Exposed Polar Surface Area (EPSA); type: physicochemical; conditions: SFC on Chirex 3014 column; sample 1 mM DMSO stock; read-out: EPSA
How it was run: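 Retention-based polarity: supercritical CO2 with 20 mM ammonium formate in MeOH (5–60%, 20%/min), Chirex 3014 column, 35 °C. Calibrated against 8 standards to give EPSA (Å^2); each sample measured twice.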

Row | EPSA | Compound
1 | 166 A^2 | CC(=O)NCCCC[C@@H]1NC(=O)[C@H](Cc2c[nH]c3c(C)cccc23)NC(=O)[C@H]([C@@H](C)O)NC(=O)[C@H](CC(N)=O)NC(=O)[C@@H](NC(C)=O)C(C)(C)SSC(C)(C)[C@@H](C(=O)N[C@@H](Cc2ccc(OCCN)cc2)C(=O)N[C@@H](Cc2ccc3ccccc3c2)C(=O)NC2(C(=O)N[C@@H](CCCCN(C)C(C)=O)C(=O)N[C@@H](CC(N)=O)C(=O)N[C@@H](Cc3cccnc3)C(=O)N(C)CC(N)=O)CCOCC2)NC1=O [compound 59] (Ac-[Pen]NT[Trp(7-Me)]K(Ac)[Pen][AEF][2Nal][Thp][Lys(Me)](Ac)N[3Pal][Sar]-NH2; disulfide 1-6 (inferred))
2 | 160 A^2 | CC(=O)NCCCC[C@@H]1NC(=O)[C@H](Cc2c[nH]c3c(C)cccc23)NC(=O)[C@H]([C@@H](C)O)NC(=O)[C@H](CC(N)=O)NC(=O)[C@@H](NC(=O)CCCCC[N+](C)(C)C)C(C)(C)SSC(C)(C)[C@@H](C(=O)N[C@@H](Cc2ccc(OCCN)cc2)C(=O)N[C@@H](Cc2ccc3ccccc3c2)C(=O)NC2(C(=O)N[C@@H](CCCCNC(C)=O)C(=O)N[C@@H](CC(N)=O)C(=O)N[C@@H](Cc3cccnc3)C(=O)N(C)CC(N)=O)CCOCC2)NC1=O [compound 89] ({Hexanoyl(6-NMe3+)}-[Pen]NT[Trp(7-Me)]K(Ac)[Pen][AEF][2Nal][Thp]K(Ac)N[3Pal][Sar]-NH2; disulfide 1-6 (inferred))
3 | 145 A^2 | CC(=O)N(C)CCCC[C@@H]1NC(=O)[C@H](Cc2c[nH]c3c(C)cccc23)NC(=O)[C@H]([C@@H](C)O)NC(=O)[C@H](CC(=O)N(C)C)NC(=O)[C@@H](NC(=O)CCOCCOCC[N+](C)(C)C)C(C)(C)SSC(C)(C)[C@@H](C(=O)N[C@@H](Cc2ccc(OCC3CCC[N+](C)(C)C3)cc2)C(=O)N[C@@H](Cc2ccc3ccccc3c2)C(=O)NC2(C(=O)N[C@@H](CCCCN(C)C(C)=O)C(=O)N[C@@H](CC(N)=O)C(=O)N[C@@H](Cc3cccnc3)C(=O)N(C)CC(=O)N(C)C)CCOCC2)NC1=O (stereo partly drawn) [compound 215, cPEG3aCO-Pen(3)-N(N(Me)2)-T-7MeW-K(NMeAc)-Pen(3)-DMMMF-2Nal-THP-K(NMeAc)-N-3Pya-Sar-CON(Me)2] ({Me3N+(CH2)2O(CH2)2O(CH2)2CO}-[Pen]D(NMe2)T[Trp(7-Me)][Lys(Me)](Ac)[Pen]Y(X86)[2Nal][Thp][Lys(Me)](Ac)N[3Pal][Sar]-NMe2; disulfide 1-6)
4 | 159 A^2 | CC(=O)N(C)CCCC[C@@H]1NC(=O)[C@H](Cc2c[nH]c3c(C)cccc23)NC(=O)[C@H]([C@@H](C)O)NC(=O)[C@H](CC(=O)N(C)C)NC(=O)[C@@H](NC(=O)CCOCCOCC[N+](C)(C)C)C(C)(C)SSC(C)(C)[C@@H](C(=O)N[C@@H](Cc2ccc(OCCCCCCCCC(=O)O)cc2)C(=O)N[C@@H](Cc2ccc3ccccc3c2)C(=O)NC2(C(=O)N[C@@H](CCCCN(C)C(C)=O)C(=O)N[C@@H](CC(N)=O)C(=O)N[C@@H](Cc3cccnc3)C(=O)N(C)CC(=O)N(C)C)CCOCC2)NC1=O [compound 236, cPEG3aCO-Pen(3)-N(N(Me)2)-T-7MeW-K(NMeAc)-Pen(3)-Y(C9OH)-2Nal-THP-K(NMeAc)-N-3Pya-Sar-CON(Me)2] ({Me3N+(CH2)2O(CH2)2O(CH2)2CO}-[Pen]D(NMe2)T[Trp(7-Me)][Lys(Me)](Ac)[Pen]Y(X42)[2Nal][Thp][Lys(Me)](Ac)N[3Pal][Sar]-NMe2; disulfide 1-6)
5 | 147 A^2 | CC(=O)N(C)CCCC[C@@H]1NC(=O)[C@H](Cc2c[nH]c3c(C)cccc23)NC(=O)[C@H]([C@@H](C)O)NC(=O)[C@H](CC(=O)N(C)C)NC(=O)[C@@H](NC(=O)CCOCCOCC[N+](C)(C)C)C(C)(C)SSC(C)(C)[C@@H](C(=O)N[C@@H](Cc2ccc(OCC[n+]3ccccc3)cc2)C(=O)N[C@@H](Cc2ccc3ccccc3c2)C(=O)NC2(C(=O)N[C@@H](CCCCN(C)C(C)=O)C(=O)N[C@@H](CC(N)=O)C(=O)N[C@@H](Cc3cccnc3)C(=O)N(C)CC(=O)N(C)C)CCOCC2)NC1=O [compound 231, cPEG3aCO-Pen(3)-N(N(Me)2)-T-7MeW-K(NMeac)-Pen(3)-NPyEF-2Nal-THP-K(NMeAc)-N-3Pya-Sar-CON(Me)2] ({Me3N+(CH2)2O(CH2)2O(CH2)2CO}-[Pen]D(NMe2)T[Trp(7-Me)][Lys(Me)](Ac)[Pen]Y(X91)[2Nal][Thp][Lys(Me)](Ac)N[3Pal][Sar]-NMe2; disulfide 1-6)
6 | 180 A^2 | CC(=O)NCCCC[C@@H]1NC(=O)[C@H](Cc2c[nH]c3c(C)cccc23)NC(=O)[C@H]([C@@H](C)O)NC(=O)[C@H](CC(N)=O)NC(=O)[C@@H](NC(=O)[C@@H](CCCNC(=N)N)NC(=O)CCOCCOCC[N+](C)(C)C)C(C)(C)SSC(C)(C)[C@@H](C(=O)N[C@@H](Cc2ccc(OCCCCC[N+](C)(C)C)cc2)C(=O)N[C@@H](Cc2ccc3ccccc3c2)C(=O)NC2(C(=O)N[C@@H](CCC(=O)O)C(=O)N[C@@H](CC(N)=O)C(=O)N[C@@H](Cc3cncc(C)c3)C(=O)N(C)CC(N)=O)CCOCC2)NC1=O [compound 542, cPEG3aCO-r-Pen(3)-N-T-7MeW-K(Ac)-Pen(3)-TMAPF-2Nal-THP-E-N-5MePyridinAla-Sar-CONH2] ({Me3N+(CH2)2O(CH2)2O(CH2)2CO}-[dR][Pen]NT[Trp(7-Me)]K(Ac)[Pen]Y(X3)[2Nal][Thp]EN[3Pal(5-Me)][Sar]-NH2; disulfide 2-7)
7 | 164 A^2 | CC(=O)NCCCC[C@@H]1NC(=O)[C@H](Cc2c[nH]c3c(C)cccc23)NC(=O)[C@H]([C@@H](C)O)NC(=O)[C@H](CC(N)=O)NC(=O)[C@@H](NC(C)=O)C(C)(C)SSC(C)(C)[C@@H](C(=O)N[C@@H](Cc2ccc(OCCOCCOCC[N+]3(C)CCN(C)CC3)cc2)C(=O)N[C@@H](Cc2ccc3ccccc3c2)C(=O)NC2(C(=O)N[C@@H](CCC(=O)O)C(=O)N[C@@H](CC(N)=O)C(=O)N[C@@H](Cc3cccnc3)C(=O)N(C)CC(N)=O)CCOCC2)NC1=O [compound 433] (Ac-[Pen]NT[Trp(7-Me)]K(Ac)[Pen]Y(X22)[2Nal][Thp]EN[3Pal][Sar]-NH2; disulfide 1-6 (inferred))
8 | 140 A^2 | CC(=O)N(C)CCCC[C@@H]1NC(=O)[C@H](Cc2c[nH]c3c(C)cccc23)NC(=O)[C@H]([C@@H](C)O)NC(=O)[C@H](CC(=O)N(C)C)NC(=O)[C@@H](NC(=O)CCOCCOCC[N+](C)(C)C)C(C)(C)SSC(C)(C)[C@@H](C(=O)N[C@@H](Cc2ccc(OCCN(C)CCOCC[N+](C)(C)C)cc2)C(=O)N[C@@H](Cc2ccc3ccccc3c2)C(=O)NC2(C(=O)N[C@@H](CCCCN(C)C(C)=O)C(=O)N[C@@H](CC(N)=O)C(=O)N[C@@H](Cc3cccnc3)C(=O)N(C)CC(=O)N(C)C)CCOCC2)NC1=O [compound 237, cPEG3aCO-Pen(3)-N(N(Me)2)-T-7MeW-K(NMeAc)-Pen(3)-AEF(NMePEG2a)-2Nal-THP-K(NMeAc)-N-3Pya-Sar-CON(Me)2] ({Me3N+(CH2)2O(CH2)2O(CH2)2CO}-[Pen]D(NMe2)T[Trp(7-Me)][Lys(Me)](Ac)[Pen]Y(X69)[2Nal][Thp][Lys(Me)](Ac)N[3Pal][Sar]-NMe2; disulfide 1-6)
9 | 163 A^2 | CC(=O)NCCCC[C@@H]1NC(=O)[C@H](Cc2c[nH]c3c(C)cccc23)NC(=O)[C@H]([C@@H](C)O)NC(=O)[C@H](CC(=O)N(C)C)NC(=O)[C@@H](NC(C)=O)C(C)(C)SSC(C)(C)[C@@H](C(=O)N[C@@H](Cc2ccc(OCCN)cc2)C(=O)N[C@@H](Cc2ccc3ccccc3c2)C(=O)NC2(C(=O)N[C@@H](CCCCNC(C)=O)C(=O)N[C@@H](CC(N)=O)C(=O)N[C@@H](Cc3cccnc3)C(=O)N(C)CC(N)=O)CCOCC2)NC1=O [compound 279, MeCO-Pen(3)-N(N(Me)2)-T-7MeW-K(Ac)-Pen(3)-AEF-2Nal-THP-K(Ac)-N-3Pya-Sar-CONH2] (Ac-[Pen]D(NMe2)T[Trp(7-Me)]K(Ac)[Pen][AEF][2Nal][Thp]K(Ac)N[3Pal][Sar]-NH2; disulfide 1-6)
10 | 161 A^2 | CC(=O)NCCCC[C@@H]1NC(=O)[C@H](Cc2c[nH]c3c(C)cccc23)NC(=O)[C@H]([C@@H](C)O)NC(=O)[C@H](CC(N)=O)NC(=O)[C@@H](NC(=O)[C@@H](CCCC[N+](C)(C)C)NC(=O)CC(F)(F)F)C(C)(C)SSC(C)(C)[C@@H](C(=O)N[C@@H](Cc2ccc(OCCN)cc2)C(=O)N[C@@H](Cc2ccc3ccccc3c2)C(=O)NC2(C(=O)N[C@@H](CCCCNC(C)=O)C(=O)N[C@@H](CC(N)=O)C(=O)N[C@@H](Cc3cccnc3)C(=O)N(C)CC(N)=O)CCOCC2)NC1=O [compound 144] ({Propanoyl(3,3,3-F3)}-[dLys(Me3)][Pen]NT[Trp(7-Me)]K(Ac)[Pen][AEF][2Nal][Thp]K(Ac)N[3Pal][Sar]-NH2; disulfide 2-7)
11 | 158 A^2 | CC(=O)NCCCC[C@@H]1NC(=O)[C@H](Cc2c[nH]c3c(C)cccc23)NC(=O)[C@H]([C@@H](C)O)NC(=O)[C@H](CC(N)=O)NC(=O)[C@@H](NC(C)=O)C(C)(C)SSC(C)(C)[C@@H](C(=O)N[C@@H](Cc2ccc(OCCN(C)C)cc2)C(=O)N[C@@H](Cc2ccc3ccccc3c2)C(=O)N[C@@](C)(CCCCN)C(=O)N[C@@H](CCCCNC(C)=O)C(=O)N[C@@H](CC(N)=O)C(=O)NC2(C(N)=O)CCOCC2)NC1=O [compound 31] (Ac-[Pen]NT[Trp(7-Me)]K(Ac)[Pen]Y(Me2NCH2CH2)[2Nal][αMeK]K(Ac)N[Thp]-NH2; disulfide 1-6)
12 | 161 A^2 | CC(=O)NCCCC[C@@H]1NC(=O)[C@H](Cc2c[nH]c3c(C)cccc23)NC(=O)[C@H]([C@@H](C)O)NC(=O)[C@H](CC(N)=O)NC(=O)[C@@H](NC(C)=O)C(C)(C)SSC(C)(C)[C@@H](C(=O)N[C@@H](Cc2ccc(-n3cc(CCC[N+](C)(C)C)nn3)cc2)C(=O)N[C@@H](Cc2ccc3ccccc3c2)C(=O)NC2(C(=O)N[C@@H](CCCCNC(C)=O)C(=O)N[C@@H](CC(N)=O)C(=O)N[C@@H](Cc3cccnc3)C(=O)N(C)CC(N)=O)CCOCC2)NC1=O [compound 423] (Ac-[Pen]NT[Trp(7-Me)]K(Ac)[Pen][X51][2Nal][Thp]K(Ac)N[3Pal][Sar]-NH2; disulfide 1-6)
